Test: xn = mol fraction of the nth substance listed
Conditions: 101 kPa

CC(C)O + CCCC[N+]1(C)CCCC1.O=S(=O)([N-]S(=O)(=O)C(F)(F)F)C(F)(F)F
x1 = 1
Conditions | speed of sound [m/s]
298.15 K | 1139.6
303.15 K | 1122
308.15 K | 1104.4

CCO + CCCC[n+]1cccc(C)c1.O=S(=O)([N-]S(=O)(=O)C(F)(F)F)C(F)(F)F
x1 = 1
Conditions | speed of sound [m/s]
298.15 K | 1143.6
303.15 K | 1126.7
308.15 K | 1109.8

CCCC[n+]1cccc(C)c1.O=S(=O)([N-]S(=O)(=O)C(F)(F)F)C(F)(F)F + CC(C)O
speed of sound [m/s]
Conditions | 298.15 K | 303.15 K | 308.15 K
x2 = 0 | 1248.3 | 1237.1 | 1226
x2 = 0.0534 | 1245.3 | 1234.1 | 1222.2
x2 = 0.1034 | – | 1231 | 1219.8
x2 = 0.1577 | – | 1227.4 | 1216.1
x2 = 0.1756 | 1237 | 1225.7 | 1214.3
x2 = 0.3062 | 1227.4 | 1215.8 | 1204.2
x2 = 0.3957 | 1220.8 | 1209 | 1197.1
x2 = 0.51 | 1208.6 | 1197.3 | 1185.3
x2 = 0.6002 | 1197.7 | 1185.3 | 1173
x2 = 0.7046 | 1182.1 | 1169.3 | 1156.5
x2 = 0.8006 | – | – | 1135.4
x2 = 0.8988 | – | 1129.5 | 1115.2

CCCO + CCCC[N+]1(C)CCCC1.O=S(=O)([N-]S(=O)(=O)C(F)(F)F)C(F)(F)F
x1 = 1
Conditions | speed of sound [m/s]
298.15 K | 1206.4
303.15 K | 1189.3

CCO + CCCC[N+]1(C)CCCC1.O=S(=O)([N-]S(=O)(=O)C(F)(F)F)C(F)(F)F
x1 = 1
Conditions | speed of sound [m/s]
303.15 K | 1126.7
308.15 K | 1109.8

CCCC[n+]1cccc(C)c1.O=S(=O)([N-]S(=O)(=O)C(F)(F)F)C(F)(F)F + CCCO
speed of sound [m/s]
Conditions | 298.15 K | 303.15 K | 308.15 K
x2 = 0 | 1248.3 | 1237.1 | 1226
x2 = 0.0431 | – | 1235.4 | 1224.3
x2 = 0.0889 | 1244.5 | 1233.4 | 1222.3
x2 = 0.1564 | 1241.8 | – | 1219.1
x2 = 0.2913 | – | 1223.2 | 1211.8
x2 = 0.3788 | 1229.5 | 1217.9 | 1206.3
x2 = 0.5665 | 1215.6 | 1203.5 | 1191.5
x2 = 0.5901 | – | 1201.4 | 1189.3
x2 = 0.6913 | 1204 | 1191.4 | –
x2 = 0.8006 | 1194.1 | 1180.8 | 1167.7
x2 = 0.8947 | 1189.3 | 1174.9 | –
x2 = 0.9467 | 1193.4 | 1178 | 1162.7

CCCC[N+]1(C)CCCC1.O=S(=O)([N-]S(=O)(=O)C(F)(F)F)C(F)(F)F + CCO
speed of sound [m/s]
Conditions | 298.15 K | 303.15 K | 308.15 K
x2 = 0 | 1269.3 | 1258.2 | 1247.1
x2 = 0.0586 | 1266.6 | 1255.3 | 1244.2
x2 = 0.1981 | 1258.6 | 1247.2 | 1235.9
x2 = 0.2834 | 1252.8 | 1241.3 | 1229.9
x2 = 0.4449 | 1238.4 | 1226.6 | 1215
x2 = 0.5133 | 1230.8 | 1218.9 | 1207.1
x2 = 0.6012 | 1219.2 | – | –
x2 = 0.7078 | – | 1189.2 | 1176.8
x2 = 0.7929 | 1184.8 | 1171.6 | –
x2 = 0.8997 | 1158.2 | 1144 | 1129.8
x2 = 0.9492 | – | 1133.2 | –
